From ChEMBL document CHEMBL1201862, “PubChem BioAssay data set” (2004)
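Test compounds were applied to cells in 96-well plates for 48 hours at 5 doses. GI50 = concentration required for 50% inhibition of growth.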 Active and inactive are the calls of the source. No stated cut-off is given here; in the data, active = GI50 up to about 1.1 µM and inactive = higher.

Legend:
Experiment in all cases: DTP human tumour cell line panel, 48 h
U-251 = test system: U-251
K562 = test system: K562
SN12C = test system: SN12C
OVCAR-8 = test system: OVCAR-8
SF-539 = test system: SF-539
RPMI-8226 = test system: RPMI-8226
HCT-116 = test system: HCT-116
SF-268 = test system: SF-268
HCT-15 = test system: HCT-15
UACC-257 = test system: UACC-257
SNB-19 = test system: SNB-19
NCI/ADR-RES = test system: NCI/ADR-RES
M14 = test system: M14
KM12 = test system: KM12
Malme-3M = test system: Malme-3M
SK-MEL-28 = test system: SK-MEL-28
MCF7 = test system: MCF7
HOP-62 = test system: HOP-62
EKVX = test system: EKVX
A498 = test system: A498
BT-549 = test system: BT-549
SK-MEL-2 = test system: SK-MEL-2
A549 = test system: A549
SNB-75 = test system: SNB-75
SK-OV-3 = test system: SK-OV-3
Hs-578T = test system: Hs-578T
MOLT-4 = test system: MOLT-4
LOX IMVI = test system: LOX IMVI
SF-295 = test system: SF-295
NCI-H460 = test system: NCI-H460
786-0 = test system: 786-0
TK-10 = test system: TK-10
OVCAR-5 = test system: OVCAR-5
OVCAR-4 = test system: OVCAR-4
IGROV-1 = test system: IGROV-1
CCRF-CEM = test system: CCRF-CEM
SW-620 = test system: SW-620
HT-29 = test system: HT-29
MDA-N = test system: MDA-N
UACC-62 = test system: UACC-62
MDA-MB-231 = test system: MDA-MB-231
ACHN = test system: ACHN
UO-31 = test system: UO-31
NCI-H226 = test system: NCI-H226
HL-60 = test system: HL-60
HOP-92 = test system: HOP-92
CAKI-1 = test system: CAKI-1
HCC 2998 = test system: HCC 2998
NCI-H23 = test system: NCI-H23
RXF 393 = test system: RXF 393
MDA-MB-435 = test system: MDA-MB-435
OVCAR-3 = test system: OVCAR-3
NCI-H522 = test system: NCI-H522
PC-3 = test system: PC-3
SR = test system: SR
DU-145 = test system: DU-145
COLO 205 = test system: COLO 205
T47D = test system: T47D
SK-MEL-5 = test system: SK-MEL-5

In the case of `O=C1C=CC=C/C1=C1\N=C(c2ccccc2OCC(=O)c2ccccc2)SS1`, the GI50 (U-251) was 44.8 µM (inactive), the GI50 (K562) was > 100 µM (inactive) and the GI50 (SN12C) was > 100 µM (inactive). The GI50 (OVCAR-8) was 73.5 µM (inactive), the GI50 (SF-539) was 86.7 µM (inactive) and the GI50 (RPMI-8226) was > 100 µM (inactive). For the same molecule, the GI50 (HCT-116) was > 100 µM (inactive), the GI50 (SF-268) was 58.1 µM (inactive) and the GI50 (HCT-15) was over 100 µM. For the same molecule, the GI50 (UACC-257) was > 100 µM (inactive), the GI50 (SNB-19) was > 100 µM (inactive) and the GI50 (NCI/ADR-RES) was > 100 µM (inactive). For the same molecule, the GI50 (M14) was > 100 µM (inactive), the GI50 (KM12) was > 100 µM (inactive) and the GI50 (Malme-3M) was > 100 µM (inactive). The GI50 (SK-MEL-28) was > 100 µM (inactive), the GI50 (MCF7) was > 100 µM (inactive) and the GI50 (HOP-62) was 39.4 µM (inactive). The GI50 (EKVX) was > 100 µM (inactive), the GI50 (A498) was > 100 µM (inactive) and the GI50 (BT-549) was 46.1 µM (inactive). For the same molecule, the GI50 (SK-MEL-2) was > 100 µM (inactive), the GI50 (A549) was > 100 µM (inactive) and the GI50 (SNB-75) was 19.6 µM (inactive). The GI50 (SK-OV-3) was > 100 µM (inactive), the GI50 (Hs-578T) was 26.9 µM (inactive) and the GI50 (MOLT-4) was 22.6 µM (inactive). The GI50 (LOX IMVI) was > 100 µM (inactive), the GI50 (SF-295) was 74.5 µM (inactive) and the GI50 (NCI-H460) was > 100 µM (inactive). The GI50 (786-0) was > 100 µM (inactive), the GI50 (TK-10) was > 100 µM (inactive) and the GI50 (OVCAR-5) was > 100 µM (inactive). For the same molecule, the GI50 (OVCAR-4) was > 100 µM (inactive), the GI50 (IGROV-1) was > 100 µM (inactive) and the GI50 (CCRF-CEM) was > 100 µM (inactive). For the same molecule, the GI50 (SW-620) was > 100 µM (inactive), the GI50 (HT-29) was > 100 µM (inactive) and the GI50 (MDA-N) was > 100 µM (inactive). For the same molecule, the GI50 (UACC-62) was > 100 µM (inactive), the GI50 (MDA-MB-231) was > 100 µM (inactive) and the GI50 (ACHN) was > 100 µM (inactive). The GI50 (UO-31) was > 100 µM (inactive), the GI50 (NCI-H226) was > 100 µM (inactive) and the GI50 (HL-60) was > 100 µM (inactive). For the same molecule, the GI50 (HOP-92) was > 100 µM (inactive), the GI50 (CAKI-1) was > 100 µM (inactive) and the GI50 (HCC 2998) was > 100 µM (inactive). The GI50 (NCI-H23) was > 100 µM (inactive), the GI50 (RXF 393) was > 100 µM (inactive) and the GI50 (MDA-MB-435) was > 100 µM (inactive). For the same molecule, the GI50 (OVCAR-3) was > 100 µM (inactive).
`COc1cccc(-c2nc(-c3cnccn3)n(C/C=C/c3ccccc3)n2)c1` was tested, and the GI50 (NCI-H522) was > 10 µM (inactive), the GI50 (U-251) was > 10 µM (inactive) and the GI50 (K562) was > 10 µM (inactive). For the same molecule, the GI50 (SN12C) was > 10 µM (inactive), the GI50 (OVCAR-8) was > 10 µM (inactive) and the GI50 (SF-539) was > 10 µM (inactive). For the same molecule, the GI50 (SF-268) was > 10 µM (inactive), the GI50 (HCT-15) was over 10 µM and the GI50 (UACC-257) was > 10 µM (inactive). For the same molecule, the GI50 (SNB-19) was > 10 µM (inactive), the GI50 (NCI/ADR-RES) was > 10 µM (inactive) and the GI50 (M14) was > 10 µM (inactive). The GI50 (KM12) was > 10 µM (inactive), the GI50 (Malme-3M) was > 10 µM (inactive) and the GI50 (MCF7) was > 10 µM (inactive). For the same molecule, the GI50 (EKVX) was > 10 µM (inactive), the GI50 (BT-549) was > 10 µM (inactive) and the GI50 (PC-3) was > 10 µM (inactive). The GI50 (SK-MEL-2) was > 10 µM (inactive), the GI50 (A549) was > 10 µM (inactive) and the GI50 (SNB-75) was 6.32 µM (inactive). For the same molecule, the GI50 (SR) was > 10 µM (inactive), the GI50 (Hs-578T) was > 10 µM (inactive) and the GI50 (MOLT-4) was > 10 µM (inactive). For the same molecule, the GI50 (LOX IMVI) was > 10 µM (inactive), the GI50 (SF-295) was > 10 µM (inactive) and the GI50 (NCI-H460) was > 10 µM (inactive). For the same molecule, the GI50 (786-0) was > 10 µM (inactive), the GI50 (TK-10) was > 10 µM (inactive) and the GI50 (OVCAR-5) was > 10 µM (inactive). The GI50 (OVCAR-4) was > 10 µM (inactive), the GI50 (IGROV-1) was > 10 µM (inactive) and the GI50 (CCRF-CEM) was > 10 µM (inactive). The GI50 (SW-620) was > 10 µM (inactive), the GI50 (HT-29) was > 10 µM (inactive) and the GI50 (MDA-N) was > 10 µM (inactive). For the same molecule, the GI50 (UACC-62) was > 10 µM (inactive), the GI50 (ACHN) was > 10 µM (inactive) and the GI50 (UO-31) was > 10 µM (inactive). For the same molecule, the GI50 (NCI-H226) was > 10 µM (inactive), the GI50 (HOP-92) was 1.86 µM (inactive) and the GI50 (HCC 2998) was > 10 µM (inactive). The GI50 (NCI-H23) was > 10 µM (inactive), the GI50 (MDA-MB-435) was > 10 µM (inactive) and the GI50 (OVCAR-3) was > 10 µM (inactive).
With `O=S1(=O)OCCOS(=O)(=O)C1Cc1cccc2ccccc12` the GI50 (DU-145) was 12 µM (inactive), the GI50 (NCI-H522) was 18.9 µM (inactive) and the GI50 (U-251) was 18.2 µM (inactive). The GI50 (K562) was 15.6 µM (inactive), the GI50 (SN12C) was 20.6 µM (inactive) and the GI50 (OVCAR-8) was 17.7 µM (inactive). The GI50 (SF-539) was 22.3 µM (inactive), the GI50 (RPMI-8226) was 39.4 µM (inactive) and the GI50 (HCT-116) was 20.3 µM (inactive). For the same molecule, the GI50 (SF-268) was 14.5 µM (inactive), the GI50 (HCT-15) was 26.5 µM and the GI50 (UACC-257) was 14.1 µM (inactive). The GI50 (SNB-19) was 25 µM (inactive), the GI50 (NCI/ADR-RES) was 20.3 µM (inactive) and the GI50 (M14) was 20.7 µM (inactive). For the same molecule, the GI50 (COLO 205) was 13.9 µM (inactive), the GI50 (Malme-3M) was 16.1 µM (inactive) and the GI50 (SK-MEL-28) was 2.69 µM (inactive). For the same molecule, the GI50 (T47D) was 39.4 µM (inactive), the GI50 (MCF7) was 14.4 µM (inactive) and the GI50 (HOP-62) was 23.9 µM (inactive). For the same molecule, the GI50 (EKVX) was 30.3 µM (inactive), the GI50 (A498) was 14.1 µM (inactive) and the GI50 (PC-3) was 33.2 µM (inactive). The GI50 (SK-MEL-2) was 51.3 µM (inactive), the GI50 (A549) was 35.2 µM (inactive) and the GI50 (SNB-75) was 29.6 µM (inactive). The GI50 (SK-OV-3) was 27.5 µM (inactive), the GI50 (SR) was 25.2 µM (inactive) and the GI50 (Hs-578T) was 29.9 µM (inactive). The GI50 (MOLT-4) was 23.7 µM (inactive), the GI50 (LOX IMVI) was 20.5 µM (inactive) and the GI50 (SF-295) was 32.3 µM (inactive). For the same molecule, the GI50 (NCI-H460) was 17 µM (inactive), the GI50 (786-0) was 21.4 µM (inactive) and the GI50 (TK-10) was 30.7 µM (inactive). The GI50 (OVCAR-5) was 24.3 µM (inactive), the GI50 (OVCAR-4) was 19.8 µM (inactive) and the GI50 (IGROV-1) was 13.9 µM (inactive). The GI50 (CCRF-CEM) was 14.2 µM (inactive), the GI50 (SW-620) was 30.6 µM (inactive) and the GI50 (HT-29) was 25.5 µM (inactive). For the same molecule, the GI50 (MDA-N) was 21.2 µM (inactive), the GI50 (UACC-62) was 22.2 µM (inactive) and the GI50 (MDA-MB-231) was 23 µM (inactive). The GI50 (ACHN) was 31.5 µM (inactive), the GI50 (UO-31) was 23.2 µM (inactive) and the GI50 (NCI-H226) was 7.83 µM (inactive). The GI50 (HL-60) was 11.6 µM (inactive), the GI50 (HOP-92) was 17.9 µM (inactive) and the GI50 (CAKI-1) was 32.6 µM (inactive). The GI50 (HCC 2998) was 20.1 µM (inactive), the GI50 (NCI-H23) was 29.9 µM (inactive) and the GI50 (SK-MEL-5) was 14.4 µM (inactive). For the same molecule, the GI50 (RXF 393) was 3.37 µM (inactive) and the GI50 (MDA-MB-435) was 16.2 µM (inactive).
